The source of these data is patent publication US9067897B2, “2,4-Diaminoquinazolines for spinal muscular atrophy” (Families of Spinal Muscular Atrophy, priority 2004, dated 2015).

The EC50 is the midpoint of the concentration-response curve. Read a high EC50 as lower potency in that assay.

Where a name gives a salt, the structure may show the parent alone.

One experiment relates to SMN2 promoter. Nature of the experiment: SMN2 promoter assay (β-lactamase reporter) in NSC-34 cells. To be noted: Mus musculus, SMN2 promoter driving β-lactamase, 12 point dose curve, average of 3-6 dose curve experiments. The class given is cell-based, mouse. The text has this:
All compounds were screened using an in vitro based SMN2 promoter assay. We used NSC-34 cells, a hybrid cell line between mouse spinal cord cells and mouse neuroblastoma cells. NSC-34 cells harbor an expression plasmid containing a 3.4 kb promoter fragment of the SMN2 gene driving β-lactamase expression.
[…] […] CCF2-AM diffuses across the plasma membrane and is converted into an active β-lactamase substrate by cytoplasmic esterase. […] The fold induction is proportional to the extent of β-lactamase produced and in turn proportional to SMN2 promoter activation for a given compound relative to vehicle (DMSO) control. […] These values are used to rank activities of the compounds and derive structure activity relationship.
For `Cc1cc(COc2cccc3nc(N)nc(N)c23)no1` [Example 53, 5-(5-Methylisoxazol-3-ylmethoxy)quinazoline-2,4-diamine], the EC50 is < 1000 nM.

With `Nc1nc(N)c2c(OCc3ccc4c(c3)OCO4)cccc2n1` [Example 54, 5-(Benzo[1,3]dioxol-5-ylmethoxy)quinazoline-2,4-diamine], the EC50 was < 1000 nM.

`Nc1nc(N)c2c(OCC3CCCCO3)cccc2n1` (centres unmarked) [Example 55, 5-(Tetrahydropyran-2-ylmethoxy)quinazoline-2,4-diamine]: the EC50 was < 1000 nM.

Turning to `C[C@@H](Oc1cccc2nc(N)nc(N)c12)c1ccccc1` [Example 56, 5-((R)-1-Phenylethoxy)quinazoline-2,4-diamine], the EC50 was < 1000 nM.

On to `CC(Oc1cccc2nc(N)nc(N)c12)c1ccccn1` (centres unmarked) [Example 57, 5-(1-Pyridin-2-ylethoxy)quinazoline-2,4-diamine], for which the EC50 is < 1000 nM.

As to `CC(Oc1cccc2nc(N)nc(N)c12)c1nccs1` (centres unmarked) [Example 58, 5-(1-Thiazol-2-ylethoxy)quinazoline-2,4-diamine], the EC50 was < 1000 nM.

For `Nc1nc(N)c2c(N3CCCCC3)cccc2n1` [Example 59, 5-(Piperidin-1-yl)quinazoline-2,4-diamine], the EC50 is < 1000 nM.

Regarding `Cc1cccc(S(=O)(=O)c2cccc3nc(N)nc(N)c23)c1` [Example 60, 5-(Toluene-3-sulfonyl)-quinazoline-2,4-diamine], the EC50 lay in the range of 1000 to 5000 nM.

Consider `Nc1nc(N)c2c(OC3CCc4ccc(Cl)cc43)cccc2n1` (centres unmarked) [Example 61, 5-(6-Chloro-indan-1-yloxy)-quinazoline-2,4-diamine], for which the EC50 was < 1000 nM.

As to `Nc1nc(N)c2c(OCc3ccc(Br)cc3)cccc2n1` [Example 62, 5-(4-Bromobenzyloxy)-quinazoline-2,4-diamine], the EC50 was < 1000 nM.

As to `CC(Oc1cccc2nc(N)nc(N)c12)c1cccc(I)c1` (centres unmarked) [Example 63, 5-[1-(3-Iodophenyl)-ethoxy]-quinazoline-2,4-diamine], the EC50 is < 1000 nM.

Consider `CC(Oc1cccc2nc(N)nc(N)c12)c1ccc2c(c1)OCO2` (centres unmarked) [Example 64, 5-(1-Benzo[1,3]-dioxol-5-yl-ethoxy)-quinazoline-2,4-diamine], for which the EC50 was < 1000 nM.

For the compound `COc1ccc(COc2cccc3nc(N)nc(N)c23)cc1OC` [Example 65, 5-(3,4-Dimethoxybenzyloxy)-quinazoline-2,4-diamine], the EC50 is < 1000 nM.

Turning to `COc1cccc(C(C)Oc2cccc3nc(N)nc(N)c23)c1` (centres unmarked) [Example 66, 5-[1-(3-Methoxyphenyl)-ethoxy]-quinazoline-2,4-diamine], the EC50 is < 1000 nM.

For the compound `COc1cc(OC)cc(C(C)Oc2cccc3nc(N)nc(N)c23)c1` (centres unmarked) [Example 67, 5-[1-(3,5-Dimethoxyphenyl)-ethoxy]-quinazoline-2,4-diamine], the EC50 is < 1000 nM.

Regarding `COCOCC(COc1cccc2nc(N)nc(N)c12)c1ccc(Cl)cc1` (centres unmarked) [Example 68, 5-[2-(4-Chlorophenyl)-3-methoxymethoxypropoxy]-quinazoline-2,4-diamine], the EC50 was < 1000 nM.

`Nc1nc(N)c2c(OCC(CO)c3ccc(Cl)cc3)cccc2n1` (centres unmarked) [Example 69, 2-(4-Chlorophenyl)-3-(2,4-diaminoquinazolin-5-yloxy)-propan-1-ol hydrochloride]: the EC50 was < 1000 nM.

As to `Nc1nc(N)c2c(OCc3cc(Cl)c(Cl)cc3CO)cccc2n1` [Example 70, [4,5-Dichloro-2-(2,4-diaminoquinazolin-5-yloxymethyl)phenyl]methanol hydrochloride], the EC50 was < 1000 nM.

As to `COc1cc(Cl)ccc1Oc1cccc2nc(N)nc(N)c12` [Example 71, 5-(4-Chloro-2-methoxyphenoxy)-quinazoline-2,4-diamine], the EC50 is < 1000 nM.

`Nc1nc(N)c2c(OCC34CC5CC(CC(C5)C3)C4)cccc2n1` [Example 73, 5-(Adamantan-1-ylmethoxy)-quinazoline-2,4-diamine]: the EC50 was < 1000 nM.

Consider `Nc1nc(N)c2c(OCc3ccccc3Br)cccc2n1` [Example 74, 5-(2-Bromo-benzyloxy)-quinazoline-2,4-diamine], for which the EC50 is < 1000 nM.

Consider `Nc1nc(N)c2c(OCc3ccccc3I)cccc2n1` [Example 75, 5-(2-Iodo-benzyloxy)-quinazoline-2,4-diamine], for which the EC50 is < 1000 nM.

With `Nc1nc(N)c2c(OCc3cccc(Br)c3)cccc2n1` [Example 76, 5-(3-Bromobenzyloxy)quinazoline-2,4-diamine], the EC50 was < 1000 nM.

As for `Nc1nc(N)c2c(OCc3cccc(I)c3)cccc2n1` [Example 77, 5-(3-Iodo-benzyloxy)-quinazoline-2,4-diamine], the EC50 is < 1000 nM.

Take `CC(Oc1cccc2nc(N)nc(N)c12)c1ccc(Cl)c(Cl)c1` (centres unmarked) [Example 78, 5-[1-(3,4-Dichlorophenyl)-ethoxy]-quinazoline-2,4-diamine]: the EC50 was < 1000 nM.

For the compound `Nc1nc(N)c2c(OCc3cc(F)cc(F)c3)cccc2n1` [Example 79, 5-(3,5-Difluorobenzyloxy)quinazoline-2,4-diamine], the EC50 was < 1000 nM.

In the case of `Nc1nc(N)c2c(OC3CCc4c(F)cccc43)cccc2n1` (centres unmarked) [Example 80, 5-(4-Fluoroindan-1-yloxy)-quinazoline-2,4-diamine], the EC50 was < 1000 nM.

For the compound `Nc1nc(N)c2c(OC3CCc4ccc(F)cc43)cccc2n1` (centres unmarked) [Example 81, 5-(6-Fluoroindan-1-yloxy)-quinazoline-2,4-diamine], the EC50 was < 1000 nM.

As for `CC(Oc1cccc2nc(N)nc(N)c12)c1c(F)cccc1F` (centres unmarked) [Example 82, 5-[1-(2,6-Difluorophenyl)-ethoxy]-quinazoline-2,4-diamine], the EC50 was < 1000 nM.

For `Nc1nc(N)c2c(OCc3cc(F)cc(F)c3F)cccc2n1` [Example 83, 5-(2,3,5-Trifluorobenzyloxy)-quinazoline-2,4-diamine], the EC50 was < 1000 nM.

Turning to `Nc1nc(N)c2c(OCc3cc(F)ccc3F)cccc2n1` [Example 84, 5-(2,5-Difluorobenzyloxy)-quinazoline-2,4-diamine], the EC50 is < 1000 nM.

Consider `Nc1nc(N)c2c(OCc3ccc(F)cc3F)cccc2n1` [Example 85, 5-(2,4-Difluorobenzyloxy)-quinazoline-2,4-diamine], for which the EC50 was < 1000 nM.

Consider `Nc1nc(N)c2c(OCc3c(F)cccc3F)cccc2n1` [Example 86, 5-(2,6-Difluorobenzyloxy)-quinazoline-2,4-diamine], for which the EC50 was < 1000 nM.

With `Nc1nc(N)c2c(OCc3ccc(F)c(F)c3)cccc2n1` [Example 87, 5-(3,4-Difluorobenzyloxy)quinazoline-2,4-diamine], the EC50 was < 1000 nM.

As for `COc1ccc(Cl)cc1COc1cccc2nc(N)nc(N)c12` [Example 88, 5-(5-Chloro-2-methoxybenzyloxy)quinazoline-2,4-diamine], the EC50 was < 1000 nM.

In the case of `Nc1nc(N)c2c(OCc3cc(Cl)ccc3CO)cccc2n1` [Example 89, [4-Chloro-2-(2,4-diamino-quinazolin-5-yloxymethyl)-phenyl]-methanol hydrochloride], the EC50 was < 1000 nM.

For the compound `Nc1nc(N)c2c(-c3ccsc3)cccc2n1` [Example 90, 5-Thiophen-3-yl-quinazoline-2,4-diamine], the EC50 lay within 1000 to 5000 nM.

The same experiment, now with this note: SMN2 promoter driving β-lactamase, 12 point dose curve, average of 3-6 dose curve experiments.
Consider `COc1cccc2c1OCC2Oc1cccc2nc(N)nc(N)c12` (centres unmarked) [Example 72, 5-(7-Methoxy-2,3-dihydrobenzofuran-3-yoloxy)-quinazoline-2.4-diamine], for which the EC50 lay within 1000 to 5000 nM.
